This is an account of results in PubChem BioAssay (NCI).

Structures are written as SMILES.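 Following 48 hours of exposure in 96-well plates, responses at five concentrations were used to interpolate endpoints linearly. Abbreviation: GI50, concentration required for 50% inhibition of growth. TGI denotes the concentration required for complete inhibition of growth.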

Common to all, as to assay: DTP human tumour cell line panel, 48 h
Experiment [1] relates to ACHN renal.
Experiment [2] concerns COLO 205 colon.
The test system of experiment [3] is DU-145 prostate.
In experiment [4] the test system is HT29 colon.
Experiment [5] concerns K-562 leukemia.
Experiment [6] has as its system NCI-H460 lung.
Experiment [7] deals with OVCAR-8 ovarian.
Experiment [8] concerns SW-620 colon.
For experiment [9], the system named is T-47D breast.
Experiment [10] concerns UO-31 renal.

On to `COc1cc2c3c(n(CCCNC(=O)OCC4c5ccccc5-c5ccccc54)c(=O)c2cc1OC)-c1cc2c(cc1/C3=C\CCNC(=O)OCC1c3ccccc3-c3ccccc31)OCO2`, for which the GI50 is more than 11.8 µM in experiment [1]; more than 28 µM in [2]; more than 42.2 µM in experiment [3]; 21.5 µM in experiment [4]; 9.17 µM in experiment [5]; more than 50 µM in [6]. The GI50 is more than 35.3 µM in experiment [7], more than 24.1 µM in experiment [8], more than 50 µM in experiment [9] and more than 50 µM in experiment [10]. Further, the TGI in experiment [1] is more than 35 µM; in experiment [2], more than 50 µM; in experiment [3] it was more than 50 µM; in [4] it was more than 50 µM; in experiment [5] it was more than 35.8 µM; in [6] it was more than 50 µM. For the same compound, the concentration for total growth inhibition (TGI) in [7], in experiment [8], in experiment [9] and in [10] was more than 50 µM in each case.

In the case of `Oc1cccnc1CN1CCCCC1`, the concentration for total growth inhibition (TGI) in experiment [1], in experiment [2], in experiment [3], in experiment [4], in [5] and in [6] was more than 100 µM in each case. Also, the concentration for total growth inhibition (TGI) in experiment [7], in [8], in experiment [9] and in [10] was more than 100 µM throughout.

Turning to `CCCCCCCC/C=C/CCCCCCCC(=O)OC[C@H]1O[C@@H](n2ccc(N)nc2=O)C(F)(F)[C@@H]1O`, the GI50 was less than 0.01 µM in experiment [1]; 0.131 µM in [2]; less than 0.019 µM in experiment [3]; 0.097 µM in experiment [4]; 0.307 µM in [5]; less than 0.0212 µM in [6]. Further, the GI50 was less than 0.01 µM in experiment [7], 0.0759 µM in [8], 0.152 µM in [9] and less than 0.0136 µM in experiment [10]. Besides, the TGI was 6.07 µM in experiment [1]; more than 37.9 µM in [2]; more than 46.2 µM in [3]; more than 100 µM in [4]; more than 100 µM in experiment [5]; more than 33.4 µM in [6]. The total growth inhibition concentration (TGI) was more than 100 µM in [8], more than 100 µM in experiment [9] and 0.125 µM in experiment [10].

On to `O=C(NC1=CC(=O)c2ccccc2C1=O)c1ccccc1`, for which the GI50 in experiment [1] is 1.01 µM; in [2], 1.8 µM; in experiment [3], 1.71 µM; in experiment [4], 2.33 µM; in experiment [5], 0.694 µM; in experiment [6], 0.643 µM. The GI50 in experiment [7] was 1.67 µM; in experiment [8], 1.15 µM; in experiment [9] it was 0.777 µM; in experiment [10] it was 0.481 µM. Besides, the concentration for total growth inhibition (TGI) is 2.27 µM in [1]; 3.31 µM in experiment [2]; 3.46 µM in [3]; 4.9 µM in [4]; more than 100 µM in [5]; 13.1 µM in experiment [6]. Also, the TGI in experiment [7] is 5.63 µM; in experiment [8], 2.82 µM; in experiment [9], 2.68 µM; in experiment [10], 2.18 µM.

On to `Cc1cc(S(=O)(=O)Nc2nnc(-c3ccccc3)c(-c3ccccc3)n2)c(SCC(N)=O)cc1Cl`, for which the GI50 in experiment [1] is more than 100 µM; in [2], more than 100 µM; in experiment [3] it was 55.7 µM; in experiment [4], more than 100 µM; in [5] it was 36.3 µM; in [6] it was 36.9 µM. Besides, the GI50 is 32.5 µM in experiment [7], 41.5 µM in [8], 34.5 µM in [9] and more than 100 µM in experiment [10]. For the same compound, the concentration for total growth inhibition (TGI) in [1], in [2], in experiment [3], in experiment [4], in experiment [5] and in experiment [6] was more than 100 µM throughout. Also, the TGI is 87 µM in experiment [7], more than 100 µM in experiment [8], more than 100 µM in [9] and more than 100 µM in experiment [10].

Consider `CC(C)(C)c1cc(C(C)(C)C)cc(S(=O)(=O)Nc2cc3ccccc3cc2C(=O)NCCN)c1`, for which the GI50 is 1.7 µM in experiment [1]; 1.82 µM in [2]; 1.82 µM in experiment [3]; 1.93 µM in [4]; 2.16 µM in experiment [5]; 2.1 µM in experiment [6]. In addition, the GI50 in [7] was 2.2 µM; in experiment [8] it was 1.93 µM; in experiment [9] it was 1.7 µM; in experiment [10] it was 1.55 µM. In addition, the TGI in experiment [1] came to 3.18 µM; in experiment [2], 3.37 µM; in experiment [3], 3.47 µM; in [4] it was 3.95 µM; in experiment [5], 4.85 µM; in experiment [6], 4.12 µM. In addition, the concentration for total growth inhibition (TGI) in experiment [7] stood at 4.87 µM; in experiment [8], 3.95 µM; in experiment [9] it was 3.6 µM; in experiment [10] it was 2.98 µM.

Take `COc1cc2ncnc(Nc3ccc(C)c(O)c3)c2cc1OC`: the GI50 in [1] was 0.799 µM; in experiment [2] it was more than 25 µM; in experiment [3], 7.91 µM; in experiment [4], 14.7 µM; in [5] it was 7.19 µM; in [6] it was more than 25 µM. Also, the GI50 in [7] is 11.2 µM; in experiment [8], more than 25 µM; in [9], 7.79 µM; in experiment [10], 1.59 µM. Also, the total growth inhibition concentration (TGI) in experiment [1], in experiment [2], in experiment [3], in experiment [4], in experiment [5] and in experiment [6] was more than 25 µM each time. In addition, the TGI in [7] is more than 25 µM; in experiment [8], more than 25 µM; in experiment [9], more than 25 µM; in [10], more than 17.2 µM.
